{"source": "patent US20070202515A1", "about": "“Promac signature application” (PATHOLOGICA, LLC., priority 2005, published 2007)", "key": {"cancer": {"test_system": "cancer", "conditions": "response not universal; cited from earlier work"}, "[1]": {"conditions": "ALS patients; cited from earlier work"}, "[2]": {"test_system": "G1P3, GPR43, IFIT2, ORM1, TNFSF10", "assay": "LC5-CI quantitative RT-PCR classification index on PBMCs", "format": "in vivo, human", "conditions": "same patient", "from_the_text": "Aliquots of the RNA preparations were then RT-PCR amplified using quantitative real time methods employing a Light-Cycler^36. The signals obtained were normalized against the signal obtained with primers for β-actin according to the formula Ctactin−Ctgene=NSig where Ct=the threshold cycle for the indicated gene and NSig=the normalized signal.\nTherefore, we constructed a “weighted voting” scheme using the methods described by Golub and co-workers^37 for 10 of the most promising primer sets. ALS and control patients were divided into training and test sets and the actin normalized signal for each sample with each primer set was determined as described above. Then the voting weights (modified Rs) were calculated using the test samples according to the formula Mod R=(Mean ALS−Mean CON)/(StDev ALS+StDev CON) calculated using 13 ALS samples & 11 controls.\nNext the inflection point or the mid point between the ALS and control samples is calculated according to MID=(MeanALS+MeanCON)/2\nThen the signal for the individual primer (ICV) is calculated according to ICV=Mod R(Mean NSig−Mid)\nThe predictive power of the various primers was then evaluated using the test set of samples. […]"}, "CD14-16++macrophages": {"test_system": "CD14-16++macrophages", "assay": "Levels of CD14-16++ macrophages in patient blood by flow cytometry", "format": "in vivo, human", "conditions": "same patient", "excerpt": "FIG. 10: LC5-CI and Signature values in cutaneous T-cell lymphoma patient—the percent of CD14 cells also staining with antibodies to CD16 by flow cytometry (filled triangles) is plotted (left y axis) along with the LC5-CI (open triangles) determined for the same samples (right y axis). The samples include the baseline sample obtained prior to the administration of the first cycle of CG-47 (baseline, x axis), the samples obtained prior to the patient receiving the 2nd, 3rd, and 4th cycle of CG-47 (cy2, cy3, and cy4, respectively) and the final sample obtained when the patient experienced a relapse (ReLps).\n(§1) As part of the clinical development of CG-47, Pathologica performed analysis on blood samples from a subset of patients currently enrolled in a Phase I trial of the safety of the investigational polyamine CG-47. The trial recruited patients who have failed conventional therapy for various lymphomas. The patients received increasing amounts of CG47 for 5 days every three weeks by infusion. The trial was a dose escalation trial in which the first 3 patients received the lowest dose, the next three a higher dose etc. One patient, a person with subcutaneous T cell lymphoma, received 4 doses of 50 mg/m^2 of CG-47 over a 12 week period. […] Relapse of the lymphoma then occurred and a final sample was obtained. […]"}, "[3]": {"test_system": "subcutaneous T cell lymphoma", "assay": "Phase I trial of CG-47: clinical response of lymphoma", "format": "in vivo, human", "excerpt": "as §1, with “obtained. Levels of CD14-16++macrophages and the LC5-CI values obtained from the baseline and various subsequent samples are presented in FIG. 10. At presentation the patient had elevated CD14-16% s (˜50%) and a strongly positive LC5-CI score (6.2). After the first cycle of CG-47 the patient entered a clinical remission of their cancer that lasted for the […] of CG-47. During their clinical remission both the CD14-16++ levels and the LC5-CI scores normalized. After the 4th cycle of CG-47 the patient experienced a relapse in their cancer and in the post relapse samples CD14-16++ levels were again elevated (50%) and their LC5-CI value had reverted to a positive score (12.9).” for “obtained.”"}}}
{"smiles": "CC(C=NNC(=N)N)=NNC(=N)N.Cl.Cl.O", "note": "[MGBG, Methylglyoxal bis(guanylhydrazone) dihydrochloride hydrate]", "values": [{"measurement": "efficacy against cancer in clinical trials", "setting": "cancer", "result": "some level of efficacy against cancer"}]}
{"smiles": "C/C(=N\\N=C(N)N)c1cc(NC(=O)CCCCCCCCC(=O)Nc2cc(/C(C)=N/N=C(N)N)cc(/C(C)=N/N=C(N)N)c2)cc(/C(C)=N/N=C(N)N)c1.Cl.Cl.Cl.Cl", "note": "[CNI-1493]", "values": [{"measurement": "efficacy against cancer in clinical trials", "setting": "cancer", "result": "some level of efficacy against cancer"}]}
{"smiles": "Nc1nc2ccc(OC(F)(F)F)cc2s1", "note": "[Riluzole]", "values": [{"measurement": "effect on disease progression", "setting": "[1]", "result": "only modest slowing of disease progression"}]}
{"smiles": "CCNCCCNC/C=C\\CNCCCNCC.Cl.Cl.Cl.Cl", "note": "[CG-47]", "values": [{"measurement": "LC5-CI value in post relapse samples", "setting": "[2]; relapse after the 4th cycle", "result": 12.9}, {"measurement": "LC5-CI scores during clinical remission", "setting": "[2]; at presentation strongly positive (6.2)", "result": "normalized"}, {"measurement": "CD14-16++ levels in post relapse samples", "setting": "CD14-16++macrophages; relapse after the 4th cycle", "result": 50, "unit": "%"}, {"measurement": "CD14-16++ levels during clinical remission", "setting": "CD14-16++macrophages; at presentation elevated (~50%)", "result": "normalized"}, {"measurement": "duration of remission", "setting": "[3]; began after administration of the first dose, 50 mg/m^2, same patient", "result": "approximately 10 weeks"}, {"measurement": "clinical response of lymphoma", "setting": "[3]; one patient, 4 doses of 50 mg/m^2 over a 12 week period by infusion", "result": "very significant remission"}]}
